Experimental data reported in ChEMBL document CHEMBL4823249, “Discovery of a Pyrimidinedione Derivative as a Potent and Orally Bioavailable Axl Inhibitor” (J Med Chem, 2021).

Experiments:
BaF3 [1] = assay: Antiproliferative activity against mouse BaF3/TEL-AXL cells incubated for 72 hrs by SRB or CCK8 assay; conditions: BaF3, 72 h
[2] = biological target: T1, Tyrosine-protein kinase receptor UFO (Homo sapiens, UniProt P30530); assay: Inhibition of AXL (unknown origin) using poly [Glu, Tyr] 4:1 as substrate incubated for 60 mins in presence of ATP by ELISA
T1 sequence (P30530 whole entry): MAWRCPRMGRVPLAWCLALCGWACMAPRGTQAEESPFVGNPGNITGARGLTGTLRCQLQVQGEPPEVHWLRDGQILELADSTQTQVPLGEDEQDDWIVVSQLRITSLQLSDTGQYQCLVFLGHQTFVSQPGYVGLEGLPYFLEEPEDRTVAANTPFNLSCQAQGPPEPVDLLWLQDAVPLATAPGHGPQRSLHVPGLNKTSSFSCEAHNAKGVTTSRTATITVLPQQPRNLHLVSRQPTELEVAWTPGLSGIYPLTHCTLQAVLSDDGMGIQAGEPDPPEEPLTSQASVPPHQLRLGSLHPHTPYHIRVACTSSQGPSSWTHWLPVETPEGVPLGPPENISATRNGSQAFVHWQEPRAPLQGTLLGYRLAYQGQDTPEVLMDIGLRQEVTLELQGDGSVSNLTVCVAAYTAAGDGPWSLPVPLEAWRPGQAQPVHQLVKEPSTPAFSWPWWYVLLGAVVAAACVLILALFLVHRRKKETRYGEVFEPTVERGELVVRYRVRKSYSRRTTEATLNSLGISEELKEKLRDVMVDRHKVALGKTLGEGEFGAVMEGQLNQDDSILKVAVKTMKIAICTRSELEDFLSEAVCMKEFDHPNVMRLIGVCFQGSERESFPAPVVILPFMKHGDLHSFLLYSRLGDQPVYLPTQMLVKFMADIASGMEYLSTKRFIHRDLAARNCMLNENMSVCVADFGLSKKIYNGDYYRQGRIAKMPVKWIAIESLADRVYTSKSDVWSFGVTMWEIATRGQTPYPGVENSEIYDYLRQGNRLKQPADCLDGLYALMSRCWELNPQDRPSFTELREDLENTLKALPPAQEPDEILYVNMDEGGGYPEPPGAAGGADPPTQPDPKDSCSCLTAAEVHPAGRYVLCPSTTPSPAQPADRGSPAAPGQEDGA

U-87 MG = assay: Antitumor activity against human U-87MG cells xenografted in BALB/c nude mouse assessed as tumor growth inhibition at 50 mg/kg, po administered once daily for 14 days by caliper method; assay type: functional, U-87MG ATCC; conditions: 336 h, time 14 day, read-out: TGI
BaF3 [3] = assay: Antitumor activity against mouse BaF3/TEL-AXL cells xenografted in BALB/c nude mouse assessed as tumor growth inhibition at 50 mg/kg, po administered once daily for 14 days by caliper method; assay type: functional; conditions: 336 h, time 14 day, read-out: TGI
[4] = Tmax in Sprague-Dawley rat at 3 mg/kg, po measured upto 24 hrs by LC-MS analysis; assay type: ADME, organism-based; conditions: in vivo
[5] = AUC(0 to infinity) in Sprague-Dawley rat at 3 mg/kg, po measured upto 24 hrs by LC-MS analysis; assay type: ADME, organism-based; parameters: route oral, dose 3 mg/kg, time <=24; conditions: in vivo
[6] = AUC(0 to t) in Sprague-Dawley rat at 3 mg/kg, po measured upto 24 hrs by LC-MS analysis; assay type: ADME, organism-based; parameters: route oral, dose 3 mg/kg, time <=24; conditions: in vivo
[7] = Half life in Sprague-Dawley rat at 3 mg/kg, po measured upto 24 hrs by LC-MS analysis; assay type: ADME, organism-based; conditions: in vivo
[8] = Cmax in Sprague-Dawley rat at 3 mg/kg, po measured upto 24 hrs by LC-MS analysis; assay type: ADME, organism-based; parameters: route oral, dose 3 mg/kg, time <=24; conditions: in vivo

With `CC(C)n1cc(C(=O)Nc2ccc(Oc3ccnc(-c4cnn(CC(C)(C)O)c4)c3)c(F)c2)c(=O)n(-c2ccc(F)cc2)c1=O` as the compound, how does the IC50 (BaF3 [1]) read?
The IC50 was 2.8 nM.

Which IC50 (BaF3 [1]) does the source give for `CC(C)n1cc(C(=O)Nc2ccc(Oc3ccnc(-c4cnn(C)c4)c3)c(F)c2)c(=O)n(-c2ccc(F)cc2)c1=O` here?
Its IC50 is 1.9 nM.

For `Cn1cc(-c2cnccc2Oc2ccc(NC(=O)c3c4c(cn(-c5ccccc5)c3=O)C(=O)CCC4)cc2)cn1`, which IC50 [2] is on record?
Its IC50 is over 1000 nM.

Which IC50 (BaF3 [1]) does the source give for `CC(C)n1cc(C(=O)Nc2ccc(Oc3ccnc(-c4cnn(C5CC5)c4)c3)c(F)c2)c(=O)n(-c2ccc(F)cc2)c1=O` here?
Its IC50 is 6.3 nM.

Which IC50 (BaF3 [1]) does the source give for `CC(C)n1cc(C(=O)Nc2ccc(Oc3ccnc(NC(=O)N4CCOCC4)c3)c(F)c2)c(=O)n(-c2ccc(F)cc2)c1=O` here?
Its IC50 is under 0.2 nM.

Which inhibition in vivo at 50 mg/kg (U-87 MG) does the source give for `C[C@@H](Oc1cc(-c2cnn(C3CCNCC3)c2)cnc1N)c1c(Cl)ccc(F)c1Cl` [CRIZOTINIB] here?
The inhibition in vivo at 50 mg/kg was 93.3%.

For `Nc1nc(Nc2ccc3c(c2)CC[C@@H](N2CCCC2)CC3)nn1-c1cc2c(nn1)-c1ccccc1CCC2` [BEMCENTINIB], which IC50 (BaF3 [1]) is on record?
Its IC50 is 117 nM.

What about the inhibition in vivo at 50 mg/kg (BaF3 [3]) of the same compound?
Its inhibition in vivo at 50 mg/kg is 108%.

With `CCOc1cn(-c2ccc(F)cc2)nc1C(=O)Nc1ccc(Oc2ccncc2-c2cnn(C)c2)cc1` as the compound, how does the IC50 [2] read?
The IC50 was over 1000 nM.

Which IC50 (BaF3 [1]) does the source give for `CCC(=O)Nc1cc(Oc2ccc(NC(=O)c3cn(C(C)C)c(=O)n(-c4ccc(F)cc4)c3=O)cc2F)ccn1` here?
The IC50 was under 0.2 nM.

Which IC50 (BaF3 [1]) does the source give for `CC(C)n1cc(C(=O)Nc2ccc(Oc3ccnc(NC(=O)C4CCC4)c3)c(F)c2)c(=O)n(-c2ccc(F)cc2)c1=O` here?
The IC50 was 43.2 nM.

Which IC50 [2] does the source give for `COc1cc(NC(=O)c2cn(C(C)C)c(=O)n(-c3ccc(F)cc3)c2=O)ccc1Oc1ccnc(-c2cnn(C)c2)c1` here?
The IC50 was over 1000 nM.

Which IC50 (BaF3 [1]) does the source give for `CCc1nc(C(N)=O)c(Nc2ccc(N3CCC(N4CCN(C)CC4)CC3)c(OC)c2)nc1NC1CCOCC1` [GILTERITINIB] here?
Its IC50 is 7.6 nM.

For `CCc1ccc2c(c1)c(=O)c(C(=O)Nc1ccc(Oc3ccncc3-c3cnn(C)c3)cc1)c(C)n2C`, which IC50 [2] is on record?
The IC50 was over 1000 nM.

For `Cn1cc(-c2cnccc2Oc2ccc(NC(=O)C3=C(c4ccccc4)c4ccccc4C3=O)cc2)cn1`, which IC50 [2] is on record?
The IC50 was over 1000 nM.

With `CC(=O)Nc1cc(Oc2ccc(NC(=O)c3cn(C(C)C)c(=O)n(-c4ccc(F)cc4)c3=O)cc2F)ccn1` as the compound, how does the IC50 (BaF3 [1]) read?
The IC50 was under 0.2 nM.

With `Cc1nn(C)cc1-c1cc(Oc2ccc(NC(=O)c3cn(C(C)C)c(=O)n(-c4ccc(F)cc4)c3=O)cc2F)ccn1` as the compound, how does the IC50 (BaF3 [1]) read?
Its IC50 is 1 nM.

With `CC(C)n1cc(C(=O)Nc2ccc(Oc3ccnc(NC(=O)N4CCCC4)c3)c(F)c2)c(=O)n(-c2ccc(F)cc2)c1=O` as the compound, how does the IC50 (BaF3 [1]) read?
The IC50 was under 0.2 nM.

Which Tmax [4] does the source give for `CC(C)n1cc(C(=O)Nc2ccc(Oc3ccnc(-c4cn[nH]c4)c3)c(F)c2)c(=O)n(-c2ccc(F)cc2)c1=O` here?
Its Tmax is 1.67 h.

And the AUC(0-inf) [5]?
Its AUC(0-inf) is 52200 ng·h/mL.

What about the AUC(0-t) at 24 h [6] of the same compound?
Its AUC(0-t) at 24 h is 31600 ng·h/mL.

What about the IC50 (BaF3 [1]) of the same compound?
Its IC50 is under 0.2 nM.

What about the half-life [7] of the same compound?
Its half-life is 18.2 h.

And the Cmax [8]?
Its Cmax is 2570 ng/mL.

Which IC50 (BaF3 [1]) does the source give for `CC(C)n1cc(C(=O)Nc2ccc(Oc3ccnc(-c4cnn(CCN5CCN(C)CC5)c4)c3)c(F)c2)c(=O)n(-c2ccc(F)cc2)c1=O` here?
Its IC50 is 19.5 nM.
